Reference: the NIST ThermoML archive (doi:10.1021/acs.jced.9b00442)

Conditions: 100 kPa, Liquid; for electrical conductivity: Frequency=0.0006 MHz, Alternating current cell with electrodes; for viscosity: Concentric cylinders viscometry; for mass density: Vibrating tube method

CC[N+](C)(CCO)CCO.O=S(=O)([N-]S(=O)(=O)C(F)(F)F)C(F)(F)F
Conditions | electrical conductivity [S/m] | mass density [kg/m3] | viscosity [mPa·s]
283.15 K | 0.027 | – | –
288.15 K | 0.04 | 1524.5 | 536.2
289.15 K | – | 1523.6 | –
290.15 K | – | 1522.7 | –
291.15 K | – | 1521.7 | –
292.15 K | – | 1520.8 | –
293.15 K | 0.056 | 1519.9 | –
294.15 K | – | 1519 | –
295.15 K | – | 1518 | –
296.15 K | – | 1517.1 | –
297.15 K | – | 1516.2 | –
298.15 K | 0.076 | 1515.3 | 268.3
299.16 K | – | 1514.4 | –
300.16 K | – | 1513.4 | –
301.15 K | – | 1512.5 | –
302.15 K | – | 1511.6 | –
303.15 K | 0.101 | 1510.7 | 197.7
304.15 K | – | 1509.8 | –
305.15 K | – | 1508.9 | –
306.15 K | – | 1508 | –
307.15 K | – | 1507.1 | –
308.15 K | 0.13 | 1506.2 | 149
309.15 K | – | 1505.3 | –
310.15 K | – | 1504.4 | –
311.15 K | – | 1503.5 | –
312.15 K | – | 1502.6 | –
313.15 K | 0.165 | 1501.7 | 112.6
314.15 K | – | 1500.8 | –
315.15 K | – | 1499.9 | –
316.15 K | – | 1499 | –
317.15 K | – | 1498.1 | –
318.15 K | 0.206 | 1497.2 | 89.9
319.15 K | – | 1496.3 | –
320.15 K | – | 1495.4 | –
321.15 K | – | 1494.6 | –
322.15 K | – | 1493.7 | –
323.15 K | 0.253 | 1492.8 | 71.7
324.15 K | – | 1491.9 | –
325.15 K | – | 1491 | –
326.15 K | – | 1490.2 | –
327.15 K | – | 1489.3 | –
328.15 K | – | 1488.4 | 58.1
329.15 K | – | 1487.5 | –
330.15 K | – | 1486.7 | –
331.15 K | – | 1485.8 | –
332.15 K | – | 1484.9 | –
333.15 K | – | 1484.1 | 47.3
334.15 K | – | 1483.2 | –
335.16 K | – | 1482.3 | –
336.15 K | – | 1481.5 | –
337.15 K | – | 1480.6 | –
338.15 K | – | 1479.7 | 39.7
339.15 K | – | 1478.9 | –
340.15 K | – | 1478 | –
341.15 K | – | 1477.1 | –
342.15 K | – | 1476.3 | –
343.15 K | – | 1475.4 | 33.4
344.15 K | – | 1474.6 | –
345.15 K | – | 1473.7 | –
346.15 K | – | 1472.8 | –
347.15 K | – | 1472 | –
348.15 K | – | 1471.1 | 28.4
349.15 K | – | 1470.3 | –
350.15 K | – | 1469.4 | –
351.15 K | – | 1468.6 | –
352.15 K | – | 1467.7 | –
353.15 K | – | 1466.8 | 24.3
354.15 K | – | 1466 | –
355.15 K | – | 1465.1 | –
356.15 K | – | 1464.3 | –
357.15 K | – | 1463.5 | –
358.15 K | – | 1462.6 | 21.1
359.15 K | – | 1461.8 | –
360.15 K | – | 1460.9 | –
361.15 K | – | 1460.1 | –
362.16 K | – | 1459.2 | –
363.15 K | – | 1458.4 | 18.4

CCCC[N+](CCO)(CCO)CCO.O=S(=O)([N-]S(=O)(=O)C(F)(F)F)C(F)(F)F
Conditions | electrical conductivity [S/m] | mass density [kg/m3] | viscosity [mPa·s]
283.15 K | 0.004 | – | –
288.15 K | 0.007 | – | 2752.6
289.15 K | – | 1464.4 | –
290.15 K | – | 1463.6 | –
291.15 K | – | 1462.7 | –
292.15 K | – | 1461.8 | –
293.15 K | 0.011 | 1461 | 1684.4
294.15 K | – | 1460.1 | –
295.15 K | – | 1459.2 | –
296.15 K | – | 1458.3 | –
297.15 K | – | 1457.5 | –
298.15 K | 0.016 | 1456.6 | 1072
299.16 K | – | 1455.7 | –
300.16 K | – | 1454.9 | –
301.15 K | – | 1454 | –
302.15 K | – | 1453.1 | –
303.15 K | 0.024 | 1452.3 | 708.7
304.15 K | – | 1451.4 | –
305.15 K | – | 1450.5 | –
306.15 K | – | 1449.7 | –
307.15 K | – | 1448.8 | –
308.15 K | 0.034 | 1447.9 | 484.5
309.15 K | – | 1447.1 | –
310.15 K | – | 1446.2 | –
311.15 K | – | 1445.4 | –
312.15 K | – | 1444.5 | –
313.15 K | 0.046 | 1443.6 | 340.8
314.15 K | – | 1442.8 | –
315.15 K | – | 1441.9 | –
316.15 K | – | 1441 | –
317.15 K | – | 1440.2 | –
318.15 K | 0.062 | 1439.3 | 245.9
319.15 K | – | 1438.4 | –
320.15 K | – | 1437.6 | –
321.15 K | – | 1436.7 | –
322.15 K | – | 1435.8 | –
323.15 K | 0.082 | 1435 | 182
324.15 K | – | 1434.1 | –
325.15 K | – | 1433.2 | –
326.15 K | – | 1432.4 | –
327.15 K | – | 1431.5 | –
328.15 K | – | 1430.6 | 137.7
329.15 K | – | 1429.8 | –
330.15 K | – | 1428.9 | –
331.15 K | – | 1428.1 | –
332.15 K | – | 1427.2 | –
333.15 K | – | 1426.3 | 106.6
334.15 K | – | 1425.5 | –
335.16 K | – | 1424.6 | –
336.15 K | – | 1423.8 | –
337.15 K | – | 1422.9 | –
338.15 K | – | 1422.1 | 83.5
339.15 K | – | 1421.2 | –
340.15 K | – | 1420.4 | –
341.15 K | – | 1419.5 | –
342.15 K | – | 1418.7 | –
343.15 K | – | 1417.8 | 66.7
344.15 K | – | 1417 | –
345.15 K | – | 1416.1 | –
346.15 K | – | 1415.3 | –
347.15 K | – | 1414.5 | –
348.15 K | – | 1413.6 | 54.1
349.15 K | – | 1412.8 | –
350.15 K | – | 1411.9 | –
351.15 K | – | 1411.1 | –
352.15 K | – | 1410.3 | –
353.15 K | – | 1409.4 | 44.7
354.15 K | – | 1408.6 | –
355.15 K | – | 1407.7 | –
356.15 K | – | 1406.9 | –
357.15 K | – | 1406.1 | –
358.15 K | – | 1405.2 | 37
359.15 K | – | 1404.4 | –
360.15 K | – | 1403.6 | –
361.15 K | – | 1402.8 | –
362.16 K | – | 1401.9 | –
363.15 K | – | 1401.1 | 31.1
